# Laboratory results taken from BindingDB's records for doi:10.7270/Q2TX3CTT (Broad Institute, 2010).
# pEC50: −log10 of the molar value. Where a name gives a salt, the structure may show the parent alone.
# Target: Glycogen synthase kinase-3 beta (Homo sapiens, UniProt P49841)
# Experiment: concentration-response blocking of human GSK3B – biochemical, luminescence, cell-free homogeneous, retest, dose response (AID 434954)
# Sequence of Glycogen synthase kinase-3 beta (P49841 whole entry): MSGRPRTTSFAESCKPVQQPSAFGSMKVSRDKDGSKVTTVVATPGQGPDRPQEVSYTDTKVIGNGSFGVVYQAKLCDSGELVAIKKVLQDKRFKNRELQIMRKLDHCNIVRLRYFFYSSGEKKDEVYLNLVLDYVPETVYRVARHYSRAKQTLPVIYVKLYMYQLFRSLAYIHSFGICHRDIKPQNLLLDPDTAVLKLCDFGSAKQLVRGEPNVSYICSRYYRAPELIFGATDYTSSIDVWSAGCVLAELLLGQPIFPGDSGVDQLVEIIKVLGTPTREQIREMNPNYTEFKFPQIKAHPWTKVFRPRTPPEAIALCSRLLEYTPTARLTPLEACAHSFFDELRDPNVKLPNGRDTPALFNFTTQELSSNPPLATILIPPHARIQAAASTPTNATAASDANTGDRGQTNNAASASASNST
row,SMILES,pEC50
1,Nc1c(C(=O)c2ccccc2)sc(Nc2ccccc2)c1S(=O)(=O)c1ccccc1 [SMR000115215],< 3.52
2,"Nc1nc(Nc2ccccc2F)sc1C(=O)c1ccccc1 [[4-amino-2-(2-fluoroanilino)-1,3-thiazol-5-yl]-phenylmethanone]",6.21
3,"COc1ccc(-c2nn(-c3ccccc3)cc2/C=C(\C#N)S(=O)(=O)c2ccccc2)cc1OC [(E)-2-(benzenesulfonyl)-3-[3-(3,4-dimethoxyphenyl)-1-phenyl-4-pyrazolyl]-2-propenenitrile]",< 3.52
4,CC1(C)CC(=O)C=C(Nc2ccccc2F)C1 [SMR000105669],< 3.52
5,COc1ccc2nc3c(cc2c1)c(NC(=O)c1cccs1)nn3CC(C)C [MLS000041975],7.02
6,O=S(=O)(Nc1cccnc1)c1ccc(C2CCCCC2)cc1 [MLS000075296],< 3.52
7,C=CCN=C(NC#N)SCC(=O)NC(C)(C)C [MLS000078466],< 3.52
8,"CC(C)=CCc1c(O)ccc(C2COc3c(CC=C(C)C)c(O)cc(O)c3C2=O)c1O (stereo not given) [3',8-diprenyldalbergioidin]",< 3.52
9,Cc1ccnc(NC(=O)CCC(=O)N(CC(=O)NCCc2ccccc2)Cc2cccs2)c1 [N-(4-methylpyridin-2-yl)-N'-[2-oxidanylidene-2-(2-phenylethylamino)ethyl]-N'-(thiophen-2-ylmethyl)butanediamide],4.67
10,COc1cc(SC)ccc1C(=O)OCC(=O)NCCNC(=O)COC(=O)c1ccc(SC)cc1OC [MLS001129814],< 3.52
11,CCOc1ccccc1C=NNC(=O)c1nnn(-c2nonc2N)c1CN1CCCCCC1,6.98
12,CCOC(=O)c1c(-c2ccc(C)o2)csc1N,< 3.52
13,O=c1[nH]c(N=NCc2ccccc2)nc2ccccc12 [MLS000571403],< 3.52
14,"CCN(CC)Cc1c(C(=O)NN=Cc2cccs2)nnn1-c1nonc1N [1-(4-amino-1,2,5-oxadiazol-3-yl)-5-(diethylaminomethyl)-N-(thiophen-2-ylmethylideneamino)triazole-4-carboxamide]",5.29
15,Cc1ccnc(NC(=O)C2CC(=O)N(c3ccc4c(c3)OCCO4)C2)c1 (stereo not given) [SMR000709078],4.59
16,COCCN(CCOC)Cc1c(O)ccc2c1O/C(=C\c1ccco1)C2=O [SMR000544009],< 3.52
17,CCN(CC)S(=O)(=O)c1cccc(NC(=O)COc2ccc(Cl)cc2Br)c1 [2-(2-bromanyl-4-chloranyl-phenoxy)-N-[3-(diethylsulfamoyl)phenyl]ethanamide],< 3.52
18,CN1CCc2c(sc3c2c(=O)n(-c2ccccc2)c2nnc(SCc4ccccc4)n32)C1 [SMR000039895],< 3.52
19,"COc1ccc(Nc2nc(NCc3ccco3)nc(N)c2[N+](=O)[O-])cc1 [2-N-(furan-2-ylmethyl)-4-N-(4-methoxyphenyl)-5-nitropyrimidine-2,4,6-triamine]",< 3.52
20,CCc1nnc(NC(=O)c2cc(-c3ccccc3)nn2-c2ccccc2)s1 [SMR000152662],< 3.52
21,"CCNc1nc(N)c(C(=O)c2ccc(Cl)s2)s1 [[4-amino-2-(ethylamino)-1,3-thiazol-5-yl]-(5-chlorothiophen-2-yl)methanone]",6.76
22,CN1CCN(C(=O)CCS(=O)(=O)c2cc3c(cc2Cl)NC(=O)CO3)CC1 [SMR000627499],< 3.52
23,COc1ccc(N2CCN(c3cc(C)nc4ccc(OC)cc34)CC2)cc1 [MLS001174346],< 3.52
24,"COc1ccc(OC)c(C(=O)c2coc3ccc(O)cc23)c1 [(2,5-dimethoxyphenyl)-(5-hydroxy-1-benzofuran-3-yl)methanone]",< 3.52

row,SMILES,pEC50
1,"COc1cccc(N(CC(=O)NCC2CCCO2)C(=O)CCC(=O)Nc2nccs2)c1 (stereo not given) [N'-(3-methoxyphenyl)-N'-[2-oxo-2-(oxolan-2-ylmethylamino)ethyl]-N-(1,3-thiazol-2-yl)butanediamide]",< 3.52
2,"Nc1nc(NCC2CCCO2)nc(Nc2ccc(Cl)cc2)c1[N+](=O)[O-] (stereo not given) [N'-(4-Chloro-phenyl)-5-nitro-N-(tetrahydro-furan-2-ylmethyl)-pyrimidine-2,4,6-triamine]",5.64
3,O=C(O)c1cc(N=NCc2ccc(-c3ccc(F)cc3)o2)ccc1Cl [2-chloranyl-5-[2-[[5-(4-fluorophenyl)furan-2-yl]methylidene]hydrazinyl]benzoic acid],< 3.52
4,COc1nc(NCCN2CCOCC2)nc(Nc2ccc([N+](=O)[O-])cc2)n1,< 3.52
5,"O=C1Nc2ccccc2C1C=Nc1ccc2c(c1)OCO2 (stereo not given) [(3Z)-3-[(1,3-benzodioxol-5-ylamino)methylidene]-1H-indol-2-one]",4.94
6,CCOc1ccc(OCC)c(NC(=O)CSc2nnc(C3CC3)n2CC)c1 [MLS001223718],< 3.52
7,"CCCCn1nc(NC(=O)CC(C)C)c2cc3cc(OC)ccc3nc21 [N-(1-butyl-6-methoxy-3-pyrazolo[3,4-b]quinolinyl)-3-methylbutanamide]",< 3.52
8,"CCc1nn(CC(=O)NCCC(C)C)c(=O)c2cc3c(OC)cccc3n12 [2-(4-ethyl-9-methoxy-1-oxo-[1,2,4]triazino[4,5-a]indol-2-yl)-N-(3-methylbutyl)acetamide]",< 3.52
9,N#CCCn1cc(C(=O)O)c(-c2cccc([N+](=O)[O-])c2)n1 [SMR000372597],< 3.52
10,"COCCn1c(SCC(=O)Nc2ccc(Cl)cn2)nnc1-c1ccncc1 [N-(5-chloranylpyridin-2-yl)-2-[[4-(2-methoxyethyl)-5-pyridin-4-yl-1,2,4-triazol-3-yl]sulfanyl]ethanamide]",4.31
11,CCc1ccc(C2CC(c3ccc(C)cc3)Nc3nc(N)nn32)cc1 (stereo not given),< 3.52
12,Cc1cc(OCC(O)CNC(C)c2ccccc2)ccc1C(C)C (stereo not given) [1-(3-methyl-4-propan-2-ylphenoxy)-3-(1-phenylethylamino)-2-propanol;hydrochloride],< 3.52
13,Cc1ccc(S(=O)(=O)N2CN(Cc3ccco3)c3nc4ccccc4nc32)cc1 [SMR000145587],< 3.52
14,c1cncc(-c2nc(NCc3ccco3)c3ccccc3n2)c1 [N-(2-furanylmethyl)-2-(3-pyridinyl)-4-quinazolinamine],< 3.52
15,"CCOC(=O)C1C(C)=Nc2ncnn2C1c1ccccc1F (stereo not given) [ethyl 7-(2-fluorophenyl)-5-methyl-4,7-dihydro[1,2,4]triazolo[1,5-a]pyrimidine-6-carboxylate]",< 3.52
16,O=C(COc1ccc(S(=O)(=O)N2CCCC2)cc1Cl)Nc1ccc2c(c1)OCO2 [MLS000052177],< 3.52
17,Cc1ccc(C(=O)Nc2ccccc2C(=O)NCc2ccco2)cc1S(=O)(=O)N1CCCCC1 [SMR000076380],< 3.52
18,"NC(=O)c1c(NC(=O)CN2CCCC2)sc2c1CCCC2 [2-(2-Pyrrolidin-1-yl-acetylamino)-4,5,6,7-tetrahydro-benzo[b]thiophene-3-carboxylic acid amide]",< 3.52
19,Cc1cccc(Nc2nc(N)c([N+](=O)[O-])c(NCCO)n2)c1 [2-(6-Amino-5-nitro-2-m-tolylamino-pyrimidin-4-ylamino)-ethanol],5.23
20,Nc1nc(NCC2CCCO2)nc(Nc2ccccc2F)c1[N+](=O)[O-] (stereo not given) [MLS000769541],5.63
21,COC(=O)c1sc(Nc2ccccc2)nc1C [2-anilino-4-methyl-5-thiazolecarboxylic acid methyl ester],< 3.52
22,"CC1(C)CC(=O)C=C(Nc2ccc(Br)cn2)C1 [3-[(5-bromopyridin-2-yl)amino]-5,5-dimethylcyclohex-2-en-1-one]",< 3.52
23,c1cncc(-c2nc(NCC3CCCO3)c3ccccc3n2)c1 (stereo not given),< 3.52
24,O=C(Nc1ccc(O)c2c(=O)cc(-c3ccccc3Cl)oc12)c1cccc(Cl)c1,4.06

row,SMILES,pEC50
1,COCCNc1nc(N)c([N+](=O)[O-])c(NC2CCCCC2)n1,5.27
2,O=c1oc(-c2cccs2)nc2sc3c(c12)CCCCC3,< 3.52
3,"Cc1c(C(=O)OCc2ccccc2)nnn1-c1nonc1N [(phenylmethyl) 1-(4-azanyl-1,2,5-oxadiazol-3-yl)-5-methyl-1,2,3-triazole-4-carboxylate]",5.13
4,O=C(Nc1ccccc1)Nc1ccccn1 [1-phenyl-3-pyridin-2-ylurea],< 3.52
5,"CCNc1nc(SCC(N)=O)nc2sc3c(c12)CCN(C)C3 [2-[[4-(ethylamino)-7-methyl-6,8-dihydro-5H-pyrido[4,5]thieno[1,2-c]pyrimidin-2-yl]sulfanyl]acetamide]",4.31
6,O=C1Nc2cc(C(=O)NCCN3CCCCCC3)ccc2S/C1=C\c1ccccc1 [SMR000635247],< 3.52
7,Cc1cc(C)c(C)c(S(=O)(=O)Nc2ccccc2C(=O)NCCCn2ccnc2)c1C [MLS000055504],< 3.52
8,OCCNc1nc2nonc2nc1NCCO,< 3.52
9,COCCNC(=O)c1ccc(Cl)c(Cl)c1 [SMR000069998],< 3.52
10,"O=C(NCCCN1CCCCC1)c1ccc2c(c1)NC(=O)c1ccccc1S2 [6-oxidanylidene-N-(3-piperidin-1-ylpropyl)-5H-benzo[b][1,4]benzothiazepine-3-carboxamide]",< 3.52
11,"CC(C)(C)C(=O)c1cnc(Nc2ccccc2)s1 [1-(2-anilino-1,3-thiazol-5-yl)-2,2-dimethylpropan-1-one]",< 3.52
12,"CCC(CC)NC(=O)COC(=O)c1ccc2c(c1)C(=O)N(Cc1ccco1)C2=O [2-(2-furanylmethyl)-1,3-dioxo-5-isoindolecarboxylic acid [2-oxo-2-(pentan-3-ylamino)ethyl] ester]",< 3.52
13,COc1ccc(C(=O)c2coc3ccc(O)c(CN4CCCC4)c23)cc1 [[5-hydroxy-4-(1-pyrrolidinylmethyl)-3-benzofuranyl]-(4-methoxyphenyl)methanone],< 3.52
14,COc1ccc(C(=O)OCCc2ccc(O)cc2)cc1,< 3.52
15,Cc1cccc(C(=O)NCC(c2ccco2)N2CCc3ccccc32)c1 (stereo not given) [MLS001237444],< 3.52
16,Cc1ccc(-c2n[nH]c(=S)n2N=Cc2ccncc2)cc1 [SMR000269897],4.94
17,O=C(OCc1ccc(COC(=O)c2ccc(O)cc2)cc1)c1ccc(O)cc1 [SMR000588531],< 3.52
18,CC1=C(C#N)C(=O)NC(=O)C1=NNc1ccc(Br)cc1C(=O)O [MLS001213177],< 3.52
19,CCCN(CCC)c1nc(N)nc(-c2cc(Cl)ccc2OC)n1 [MLS000538209],< 3.52
20,N#CC1=C2SCN(Cc3ccccc3)CN2C(=O)CC1c1cccs1 (stereo not given),5.10
21,CCN(CC)C(=O)COC(=O)c1ccc(O)cc1 [[2-(diethylamino)-2-oxoethyl] 4-hydroxybenzoate],< 3.52
22,O=Cc1cn(CCC(=O)O)nc1-c1cccc(Cl)c1,< 3.52
